According to article PMC6770469, “IDE Degrades Nociceptin/Orphanin FQ through an Insulin Regulated Mechanism” (International Journal of Molecular Sciences, 2019):
Where a SMILES comes first, the peptide text is derived from it. Where no end group is shown, it is not given here. [ ]: non-standard residue; d: D form. The star is where a group is joined. Sta = CC(C)C[C@H](N)[C@@H](O)CC(=O)O; Isovaleryl = CC(C)CC(=O)*

How the values were obtained:
[1] = tested on: rat spinal cord peptidases; assay: OFQ/N cleavage by rat spinal cord homogenate with peptidase inhibitors (MALDI-MS); type: biochemical; conditions: rat spinal cord extract, 20 mM Tris-HCl 1 mM EDTA pH 7.8, 37 °C, 30 min; for inhibition of the cleavage of OFQ/N into the bioactive fragments (1-11), (1-7), (1-6): TPCK 1 mM, PMSF 1 mM, NEM 1 mM (Figure 6); for inhibition of the formation of the (1-11) fragment from OFQ/N: PHMB 0.25 mM, pepstatin A 0.01 mM (Figure 6)
Protocol: Tissue homogenate preparation: One rat spinal cord tissue was homogenized in 1 mL of ice-cold 20 mM Tris-HCl (Sigma, Milan, Italy) and 1 mM EDTA (Sigma, Milan, Sigma) using mechanical homogenizer. The obtained homogenate was centrifuged at 5000× g for 15 min at 4 °C. The supernatant was then centrifuged at 20,000× g for 15 min at 4 °C. Finally, the supernatant was divided into small aliquots and kept frozen at −80 °C [13].
Tissue extract (supernatant) incubation assays: Incubations were performed using one microliter of tissue extract diluted with 19 µL of 20 mM Tris-HCl 1 mM EDTA buffer pH 7.8 and 10 µL of Milli-Q water. Then, the reaction was initiated by the addition of 10 µL of OFQ/N 0.3 mM and continued at 37 °C for 30 min. Then, 40 µL of ice-cold methanol was used to stop the reaction. Incubation was repeated as mentioned above but adding different peptidase inhibitors. The inhibitors used for the incubation were: TPCK (tosyl phenylalanyl chloromethyl ketone) 1 mM, PMSF (phenylmethylsulfonyl fluoride) 1 mM, NEM (N-ethylmaleimide) 1 mM, PHMB (4-(hydroxymercuri)benzoic acid) 0.25 mM, pepstatin A 0.01 mM, and Ag^+ 1 mM. Enzyme assay including spinal cord homogenate was also validated using dynorphin B, as described previously. One microliter aliquots taken from each incubation mixture were analyzed using MALDI mass spectrometry. α-Cyano-4-hydroxycinnamic acid (4-HCCA) was used as matrix, and the final samples were spotted onto AnchorChip™ plate (Bruker Daltonics, 2013). The standard used for the calibration of the instrument is the Peptide Calibration Standard II by Bruker Daltonics, Macerata, Italy. Details and parameters of the instrument set-up were: mass range: 340–4000 Da; detector gain/reflector: 6.3x (2480 V); sample rate and digitizer settings: 2.50 GS/s; smartbeam parameter set: 4_large; positive ion mode; matrix suppression: off; random walk: complete sample; shots at raster spot: 200; limit diameter to: 800 µm; laser power: 20%; shots: 5000.

mouse = conditions: cited from earlier work
[2] = molecular target: T1, insulin-degrading enzyme (IDE) (Homo sapiens, UniProt P14735); assay: IDE degradation assays (time-course hydrolysis of the substrate, UPLC-HRMS); type: in vitro ADME
T1 construct: purchased Giotto Biotech, Florence, Italy
T1 sequence (P14735 whole entry, species assumed): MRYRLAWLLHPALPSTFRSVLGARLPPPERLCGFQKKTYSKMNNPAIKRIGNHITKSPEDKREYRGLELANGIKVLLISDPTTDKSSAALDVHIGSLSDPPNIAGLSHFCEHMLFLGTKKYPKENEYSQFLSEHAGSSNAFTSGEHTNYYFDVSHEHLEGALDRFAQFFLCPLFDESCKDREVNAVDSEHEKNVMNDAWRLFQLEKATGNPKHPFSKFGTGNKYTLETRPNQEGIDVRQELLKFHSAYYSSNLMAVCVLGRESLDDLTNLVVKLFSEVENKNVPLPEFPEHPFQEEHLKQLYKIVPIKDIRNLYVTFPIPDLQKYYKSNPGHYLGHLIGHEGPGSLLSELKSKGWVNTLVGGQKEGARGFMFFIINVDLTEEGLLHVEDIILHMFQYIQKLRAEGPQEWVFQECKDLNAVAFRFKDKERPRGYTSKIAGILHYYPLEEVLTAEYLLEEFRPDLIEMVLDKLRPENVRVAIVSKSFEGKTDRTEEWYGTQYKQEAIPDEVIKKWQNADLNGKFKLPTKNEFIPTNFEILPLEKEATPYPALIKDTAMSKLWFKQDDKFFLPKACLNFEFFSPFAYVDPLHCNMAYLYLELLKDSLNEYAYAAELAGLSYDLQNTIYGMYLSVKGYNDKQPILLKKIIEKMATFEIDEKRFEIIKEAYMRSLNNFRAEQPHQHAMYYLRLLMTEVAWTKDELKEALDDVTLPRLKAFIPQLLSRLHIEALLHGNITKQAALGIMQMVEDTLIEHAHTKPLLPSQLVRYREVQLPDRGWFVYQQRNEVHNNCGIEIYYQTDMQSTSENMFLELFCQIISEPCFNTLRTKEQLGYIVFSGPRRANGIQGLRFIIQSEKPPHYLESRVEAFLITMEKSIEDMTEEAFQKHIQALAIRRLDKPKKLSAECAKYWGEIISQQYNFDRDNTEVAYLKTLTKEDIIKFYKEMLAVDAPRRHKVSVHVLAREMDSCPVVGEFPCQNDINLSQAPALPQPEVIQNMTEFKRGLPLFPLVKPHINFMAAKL
Protocol: IDE degradation assays: Insulin (Ins, 2 µM, purchased from Sigma, Milan, Italy) and nociceptin peptide (OFQ/N, 2 µM, synthesized by the Fmoc solid phase synthesis and purified in our laboratory using RP HPLC) were tested for their purity using electrospray mass spectrometry (over 98% purity), and hydrolyzed in the presence of insulin-degrading enzyme (IDE, 30 nM, purchased from Giotto Biotech, Florence, Italy) in phosphate buffer 1 mM (pH 7.4, Sigma). We applied 1-16 sequence of OFQ/N because there is no difference in binding of this fragment to NOP receptors. Ins and OFQ/N were hydrolyzed both separately and in a mixture. Moreover, a pre-incubation of OFQ/N with IDE for 20 min was also performed before the addition of Ins. In order to quench the reaction, the samples were diluted 1:1 with 1% TFA aqueous solution.
The peptide content of all samples was analyzed using a Q Exactive hybrid quadrupole-Orbitrap mass spectrometer (Thermo Scientific, Milan, Italy) coupled to an Ultimate 3000 HPLC RSLCnano system (Dionex Thermo Scientific, Milan, Italy) through an EASY-Spray source (Thermo Scientific, Milan, Italy) by using the instrument settings previously reported.

Compound: CCN1C(=O)C=CC1=O [NEM, N-ethylmaleimide]
- inhibition of the cleavage of OFQ/N into the bioactive fragments (1-11), (1-7), (1-6) [1]: does not show inhibition

Compound: O=C(O)c1cc[c]([Hg][OH])cc1 [PHMB, 4-(hydroxymercuri)benzoic acid]
- inhibition of the formation of (1-7) and (1-6) from OFQ/N ([1]; PHMB 0.25 mM (Figure 6)): inhibits
- inhibition of the formation of the (1-11) fragment from OFQ/N [1]: blocks the formation of the (1-11)fragment more than all the other inhibitors

Compound: O=S(=O)(F)Cc1ccccc1 [PMSF, phenylmethylsulfonyl fluoride]
- inhibition of the cleavage of OFQ/N into the bioactive fragments (1-11), (1-7), (1-6) [1]: not efficiently inhibited

Compound: CC(C)CC(=O)N[C@H](C(=O)N[C@H](C(=O)N[C@@H](CC(C)C)[C@@H](O)CC(=O)N[C@@H](C)C(=O)N[C@@H](CC(C)C)[C@@H](O)CC(=O)O)C(C)C)C(C)C [Pepstatin A] (Isovaleryl-VV[Sta]A[Sta]-OH)
- inhibition of the formation of the (1-11) fragment from OFQ/N [1]: slightly inhibits

Compound: Cc1ccc(S(=O)(=O)N[C@@H](Cc2ccccc2)C(=O)CCl)cc1 [TPCK, tosyl phenylalanyl chloromethyl ketone]
- inhibition of the cleavage of OFQ/N into the bioactive fragments (1-11), (1-7), (1-6) [1]: not efficiently inhibited

Compound: (1-6): OFQ/N fragment (1-6), final product from (1-11) (FGGFTG; Nociceptin; UniProt Q13519 130-135, looked up, fragment)
- effect in different analgesic tests (bi-phasic) (mouse; after ICV (Intracerebroventricular) and intrathecal injection, as reported in the literature): antinociception followed by a hyperalgesia

Compound: (1-7): OFQ/N fragment (1-7), bioactive shorter sequence (FGGFTGA; Nociceptin; UniProt Q13519 130-136, looked up, fragment)
- effect on hyperalgesia induced by OFQ/N (mouse; injected in mice): blocks hyperalgesia

Compound: FGGFTGARKSARKLAN [OFQ/N, Nociceptin/Orphanin 1-16]
- time within which the substrate was almost completely degraded by IDE ([2]; OFQ/N 2 µM alone, IDE 30 nM, phosphate buffer 1 mM pH 7.4, 37 °C, LC-MS (Figure 3A)): ≤ 10 min
- OFQ/N content as % of the original value ([2]; OFQ/N and Ins 1:1 molar ratio (2 µM each) co-incubated with IDE 30 nM, phosphate buffer 1 mM pH 7.4, 37 °C, 30 min reaction, LC-MS (Figure 3B)): 80%
- content of OFQ/N, fold lower than its starting value ([2]; after 20 min pre-incubation of OFQ/N 2 µM with IDE 30 nM at 37 °C, before addition of Ins, phosphate buffer 1 mM pH 7.4, LC-MS (Figure 4A)): 5 fold
